Data on three compounds can be found in US20130287890A1, “INHIBITOR OF THE PRODUCTION OF ADVANCED GLYCATION END PRODUCTS” (UENO FINE CHEMICALS INDUSTRY, LTD., priority 2012, published 2013).

The test system of one assay is pentosidine. Nature of the assay: Quantitative determination of pentosidine after reaction at 37° C. for 42 days. The settings on record: for Pentosidine: 37° C., 42 days. The format is biochemical. The procedure:
(§1) Amino acid, carbohydrates and a phosphate buffer solution were charged in a 50 mL polypropylene centrifuge tube in each amount shown in Table 10, followed by sealing and stirring, and then the mixture was reacted in an incubator at 37° C. for 42 days. Next, the reactant was filtered through a 0.2 μm filter and the obtained filtrate was used as a sample. Amino acid and carbohydrates used are as follows:
Using a pentosidine measurement kit “FSK Pentosidine (registered trademark)” (manufactured by Fushimi Pharmaceutical Co., Ltd.), quantitative determination of pentosidine was performed in the following manner. Thirty (30) or more minutes before use, reagents and pentosidine solid-phase plates were put to room temperature. After dilution of the sample, a 50 μL aliquot of the sample was dispensed to a pentosidine solid-phase plate attached to the kit, and 50 μL of a first antibody solution was dispensed into wells other than the wells for measurement of reagent blank value. After the sample and the antibody solution were mixed by shaking the plate at 300 rpm for 1 minute, the solution was reacted at 37° C. for 1 hour. Next, the reaction solution was discarded, and 200 μL of rinsing fluid was dispensed to wash the plate. The washing was performed for 3 times. After liquid on the plate was removed, 100 μl of a second antibody solution was dispensed into wells other than the wells for measurement of reagent blank value. After the solution was mixed by shaking the plate at 300 rpm for 1 minute, the solution was reacted at 25° C. for 1 hour. Then, the reaction solution was discarded, and the plate was washed for 3 times with 200 μL of rinsing fluid again. Liquid on the plate was removed, and 100 μL of a color coupler was dispensed and left to stand for 10 minutes under a light shielding condition. Finally, 100 μL of a reaction stop solution was dispensed, and within 10 minutes after the dispensing, measurement was performed at main wavelength 450 nm/reference wavelength 630 nm using a micro-plate reader. The concentration of pentosidine was determined using the calibration curve of a pentosidine standard solution, based on measurement values of the sample.
(§2) Biological proteins, carbohydrates and a phosphate buffer solution are charged in a 50 mL polypropylene centrifuge tube in each amount shown in Table 12, followed by sealing and stirring, and then the mixture was reacted in an incubator at 37° C. for 42 days. Next, the reactant was fractionated by centrifugation at 3,000 rpm for 3 hours using an ultrafiltration unit (VIVA SPIN 20, manufactured by Sartorius Corporation). The obtained low molecular weight fraction was used as a sample for determination of 3-DG, while the obtained high molecular weight fraction was used as a sample for the determination of fluorescent AGEs, pentosidine, CML, RAGE agonist activity and RAGE antagonist activity. Biological proteins and carbohydrates used are as follows:
(§3) In the same manner as in Test Example 4, except that the low molecular weight fraction prepared as mentioned above was used as a sample, quantitative determination of 3-DG was performed. In the same manner as in Test Example 4, except that the high molecular weight fraction was filtered through a 0.2 μm filter and the filtrate was used as a sample, fluorescent AGEs, pentosidine, CML, RAGE agonist activity and RAGE antagonist activity were evaluated.
Collagen, carbohydrates and a phosphate buffer solution were charged in a 50 mL polypropylene centrifuge tube in each amount shown in Table 14, followed by sealing and stirring, and then the mixture was reacted in an incubator at 37° C. for 42 days. Next, the reactant was fractionated by centrifugation at 3,000 rpm for 3 hours using an ultrafiltration unit (VIVA SPIN 20, manufactured by Sartorius Corporation). The obtained low molecular weight fraction was used as a sample for determination of 3-DG. […]

The test system of the next assay is CML. Kind of assay: Quantitative determination of CML after reaction at 37° C. for 42 days. The format is biochemical. The settings on record: for CML: 37° C., 42 days. The method, then:
as §1
Using CircuLex CML/Nε-(carboxymethyl) lysine ELISA kit (manufactured by CycLex Co., Ltd.), quantitative determination of CML was performed in the following manner. Thirty (30) or more minutes before use, reagents and CML solid-phase wells were put to room temperature. By adding 1 mL of ultrapure water (Milli-Q water) to a CML-HSA standard powder, a master standard was prepared. By performing dilution with standard dilution buffers, standards 1 to 7 were prepared. The sample was diluted as necessary with sample dilution buffers. A CML-HSA standard and 60 μL of the sample were dispensed into a 96-well plate, which is not an accessory to the kit. Next, ultrapure water (Milli-Q water) was added to a first antibody powder, and by diluting with sample dilution buffers, a first antibody solution was prepared; 60 μL of the antibody solution was dispensed into the plate and mixed. After 100 μL of the mixture was added to CML solid-phase wells, the mixture was reacted at 25° C. for 1 hour while being shaken at 300 rpm. Then, the reaction solution was discarded, and 350 μL of rinsing fluid was dispensed to wash the plate. The washing was performed for 4 times. After liquid on the plate was removed, 100 μL of a second antibody solution was dispensed and reacted at 25° C. for 1 hour while being shaken at 300 rpm. The reaction solution was discarded, and the plate was washed for 4 times with 350 μL of rinsing fluid again. Liquid on the plate was removed, and 100 μL of a color coupler was dispensed. Then, the solution was left to stand for 10 minutes under a light shielding condition while being shaken at 300 rpm. Finally, 100 μL of a reaction stop solution was dispensed, and within 30 minutes after the dispensing, measurement was performed at main wavelength 450 nm/reference wavelength 595 nm using a micro-plate reader. The concentration of CML was determined using the calibration curve of a CML standard solution, based on measurement values of the sample.
as §2, §3
Collagen, carbohydrates and a phosphate buffer solution were charged in a 50 mL polypropylene centrifuge tube in each amount shown in Table 14, followed by sealing and stirring, and then the mixture was reacted in an incubator at 37° C. for 42 days. […]

[1] abbreviates: Test Example 4, amino acid 0.4 g + carbohydrate 1.8 g.
The mark [2] stands for this setting: Test Example 5, bovine serum albumin 0.4 g + carbohydrate 1.8 g.
[3] abbreviates: Test Example 5, human serum albumin 0.4 g + carbohydrate 1.8 g.
[4] abbreviates: Test Example 5, γ-globulin 0.4 g + carbohydrate 1.8 g.
The mark [5] stands for this setting: Test Example 6, collagen 0.015 g + carbohydrate 1.8 g, hydrolysed high molecular weight fraction.
The mark [6] stands for this setting: Test Example 4, amino acid, compared with sections containing glucose and fructose.
Where [7] appears, read: Test Example 5, bovine serum albumin, human serum albumin, γ-globulin, compared with sections containing fructose.
Where [8] appears, read: Test Example 5, bovine serum albumin, human serum albumin, γ-globulin, compared with sections containing glucose.
Where [9] appears, read: Test Example 6, collagen, compared with sections containing glucose and fructose.

On to `O=C(CO)[C@@H](O)[C@H](O)[C@H](O)CO` [Fructose], for which the Pentosidine was 24.7 nmol/1 mL of reaction solution in the assay with pentosidine (setting [1]); 0.03 nmol/1 mL of reaction solution in the assay on pentosidine (setting [2]); 0.05 nmol/1 mL of reaction solution with pentosidine (setting [3]); 0.005 nmol/1 mL of reaction solution in the assay on pentosidine (setting [4]); 0.15 nmol/1 mL of reaction solution in the assay on pentosidine (setting [5]). Further, the CML is 519 nmol/1 mL of reaction solution in the assay with CML (setting [1]); 1046 nmol/1 mL of reaction solution with CML (setting [2]); 4626 nmol/1 mL of reaction solution in the assay with CML (setting [3]); 3813 nmol/1 mL of reaction solution in the assay with CML (setting [4]); 452 nmol/1 mL of reaction solution in the assay with CML (setting [5]).

On to `O=C[C@H](O)[C@@H](O)[C@H](O)[C@H](O)CO` [Glucose], for which the Pentosidine with pentosidine (setting [1]) was 5.8 nmol/1 mL of reaction solution; in the assay with pentosidine (setting [2]), 0.01 nmol/1 mL of reaction solution; in the assay with pentosidine (setting [3]), 0.02 nmol/1 mL of reaction solution; in the assay on pentosidine (setting [4]), 0.002 nmol/1 mL of reaction solution; in the assay on pentosidine (setting [5]), 0.06 nmol/1 mL of reaction solution. Also, the CML is listed as 1197 nmol/1 mL of reaction solution in the assay with CML (setting [1]); 309 nmol/1 mL of reaction solution with CML (setting [2]); 1749 nmol/1 mL of reaction solution in the assay on CML (setting [3]); 3628 nmol/1 mL of reaction solution with CML (setting [4]); 475 nmol/1 mL of reaction solution in the assay on CML (setting [5]).

With `OC[C@@H](O)[C@@H](O)[C@H](O)[C@@H](O)CO` [Sorbitol], the Pentosidine in the assay with pentosidine (setting [1]) is 0.8 nmol/1 mL of reaction solution; in the assay with pentosidine (setting [2]), 0.03 nmol/1 mL of reaction solution; in the assay with pentosidine (setting [3]), 0.02 nmol/1 mL of reaction solution; in the assay with pentosidine (setting [4]), 0.002 nmol/1 mL of reaction solution; in the assay on pentosidine (setting [5]), 0.05 nmol/1 mL of reaction solution. Further, the production of pentosidine result in the assay with pentosidine (setting [6]), in the assay on pentosidine (setting [7]), with pentosidine (setting [8]) and in the assay on pentosidine (setting [9]) was “decreased” throughout. Moreover, the CML in the assay with CML (setting [1]) is on record as 57 nmol/1 mL of reaction solution; in the assay with CML (setting [2]), 10 nmol/1 mL of reaction solution; in the assay on CML (setting [3]), 69 nmol/1 mL of reaction solution; in the assay with CML (setting [4]), 29 nmol/1 mL of reaction solution; in the assay on CML (setting [5]), 445 nmol/1 mL of reaction solution. Also, the “production of CML” value in the assay on CML (setting [6]), in the assay on CML (setting [7]), with CML (setting [8]) and with CML (setting [9]) was “decreased” throughout.
